Molecular target: T1, human A2a receptor (Homo sapiens, UniProt P29274)
T1 construct: purchased Perkin-Elmer RBHA2AM400UA; host or cells: HEK293 cells, used as a membrane preparation
Experiment: A2a receptor competition binding assay (Scintillation Proximity)
Details: A2a Ki, membranes from HEK293 cells expressing human A2a receptor; 0.5 nM tritiated ligand; Cheng-Prusoff
Description: Binding affinities of compounds of the invention for the human A2a receptor were determined in a competition binding assay using Scintillation Proximity technology. Thus, 0.3 μg of membranes from HEK293 cells expressing the human A2a receptor were incubated with a compound of the invention at concentrations ranging from 3000 nM to 0.15 nM in a reaction mixture containing also 0.5 nM of a tritiated form of 5-amino-7-[2-phenethyl]-2-(furan-2-yl)-7H-pyrazolo[4,3-e][1,2,4]triazolo[1,5-c]pyrimidine (the tritiated compound) and 100 μg of wheat germ agglutin-coated yttrium silicate SPA beads for one hour at room temperature with agitation. The beads were then allowed to settle to the bottom of the wells for 1 hr, after which the membrane-associated radioactivity was determined by scintillation counting in a TopCount microplate reader. Ki values were determined using the Cheng-Prusoff equation.
Summary of Materials and Methods Used in A2a Activity Determination:
HEK293 cells expressing the human, rat, dog or monkey adenosine 2a receptor (Purchased from Perkin-Elmer #RBHA2AM400UA).
The Tritiated compound was prepared according to published methods.
Wheat germ agglutinin-coated yttrium silicate SPA beads (GE Healthcare #RPNQ0023). Dilute to 25 mg/ml in assay buffer.
Assay Buffer was prepared using Dulbecco's calcium and magnesium free phosphate buffered saline+10 mMMgCl2
Adenosine deaminase from calf intestine, 10 mg/2 ml (Roche #10 102 105 001).
A2a antagonist standard (9-chloro-1-(2-furanyl)-[1,2,4]triazolo1,5-c]quinazolin-5-amine from Tocris Bioscience)
Make eight 1:3 serial dilutions in 100% DMSO from a 3 mM compound stock
Transfer 50 nl of compound into a 384-well OptiPlate (Perkin Elmer).
Typically, final concentrations of compound used in the assay ranged from 3000 nM to 0.152 nM.
Dilute a solution of the Tritiated compound to 1.25 nM in assay buffer. This is a 2.5× solution. The final concentration in the assay is 0.5 nM. Calculate the concentration by counting two 5 μl aliquots.
Use 0.25 ug of membrane/well. Dilute membranes to 9.7 μg/ml in assay buffer. Treat with 20 ug/ml adenosine deaminase (ADA) for 15 minutes at room temperature to degrade endogenous adenosine.
Use 100 μg/well wheat germ agglutinin-coated yttrium silicate SPA beads.
Mix ADA-treated membranes and SPA beads together for 30 min prior to assay.
To the Perkin-Elmer Optiplate-384 containing the compound titration add 20 μl of 2.5× solution of the Tritiated compound and 30 μl of the membrane-bead mixture. Incubate for one hour at room temperature with agitation.
Include total binding (assay buffer+1% DMSO) and non-specific binding (CGS15943, 1 μM) wells.
Allow the beads to settle for one hour.
A curve fitting program (i.e., Prism, Activity Base, Chemcart) is used to determine the EC50. The Ki value is calculated using the Cheng-Prusoff equation. Ki=EC50/(1+(radioligand concentration/Kd))

T1 sequence (P29274 whole entry): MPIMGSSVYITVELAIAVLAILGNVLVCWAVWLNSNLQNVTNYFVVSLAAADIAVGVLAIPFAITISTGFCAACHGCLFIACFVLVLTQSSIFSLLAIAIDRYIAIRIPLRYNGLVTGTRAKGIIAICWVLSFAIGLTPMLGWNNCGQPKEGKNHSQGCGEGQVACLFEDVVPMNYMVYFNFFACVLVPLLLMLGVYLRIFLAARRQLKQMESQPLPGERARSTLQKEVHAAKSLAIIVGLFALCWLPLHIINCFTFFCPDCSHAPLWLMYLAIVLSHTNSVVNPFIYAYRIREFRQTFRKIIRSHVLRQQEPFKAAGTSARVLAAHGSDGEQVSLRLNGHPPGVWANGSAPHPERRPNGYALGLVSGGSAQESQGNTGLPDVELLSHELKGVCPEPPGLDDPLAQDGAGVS

Structure (SMILES) | Ki [nM]
COc1cccc2c1nc(N)n1cc(C(=O)N3CCC4(CC3)OCCO4)nc21 [Ex-188, (5-amino-7-methoxyimidazo[1,2-c]quinazolin-2-yl)(1,4-dioxa-8-azaspiro[4.5]decan-8-yl)methanone] | 54

Same assay, conditions: membranes from HEK293 cells expressing human A2a receptor; 0.5 nM tritiated ligand; Cheng-Prusoff; read-out: A2a Ki

Structure (SMILES) | Ki [nM]
COc1cccc2c1nc(N)n1cc(Cc3cccc(N4CCOCC4)c3)nc21 [Ex-28, 7-methoxy-2-(3-morpholinobenzyl)imidazo[1,2-c]quinazolin-5-amine] | 2.1
Nc1nc2c(F)cccc2c2nc(CC3CCN(C(=O)c4ccccc4)CC3)cn12 [Ex-315, (4-((5-amino-7-fluoro-imidazo[1,2-c]quina-zolin-2-yl)methyl)-piperidin-1-yl)-(phenyl)methanone] | 82
Nc1nc2c(F)cccc2c2nc(C(=O)N3CCc4cc(CC(=O)Nc5ccccn5)ccc4C3)cn12 [Ex-283, 2-(2-(5-amino-7-fluoroimidazo[1,2-c]quinazoline-2-carbonyl)-1,2,3,4-tetrahydroisoquinolin-6-yl)-N-(pyridin-2-yl)acetamide] | 21
CC(C)(C)OC(=O)N1CCCC2(CCN(C(=O)c3cn4c(N)nc5c(F)cccc5c4n3)CC2)C1 [Ex-265, tert-butyl 9-(5-amino-7-fluoroimidazo[1,2-c]quinazoline-2-carbonyl)-2,9-diazaspiro[5.5]undecane-2-carboxylate] | 86
CC(=O)N1CCc2c(Cc3cn4c(N)nc5c(F)cccc5c4n3)cccc2C1 [Ex-53, 1-(5-((5-amino-7-fluoroimidazo[1,2-c]quinazolin-2-yl)methyl)-3,4-dihydroisoquinolin-2(1H)-yl)ethan-1-one] | 3.7
Nc1nc2c(F)cccc2c2nc(CN3CCc4cc(-c5ccc(F)c(F)c5)ccc4C3)cn12 [Ex-130, 2-((6-(3,4-difluorophenyl)-3,4-dihydroisoquinolin-2(1H)-yl)methyl)-7-fluoroimidazo[1,2-c]quinazolin-5-amine] | 46
COc1cccc2c1nc(N)n1cc(C(=O)N3CCCC(OC)C3)nc21 (stereo not drawn) [Ex-240, (5-amino-7-methoxyimidazo[1,2-c]quinazolin-2-yl)(3-methoxypiperidin-1-yl)methanone] | 30.6
COc1cccc2c1nc(N)n1cc(C(=O)N3CC[C@H](F)C3)nc21 [Ex-215, (S)-(5-amino-7-methoxyimidazo[1,2-c]quinazolin-2-yl)(3-fluoropyrrolidin-1-yl)methanone] | 7.4
Nc1nc2c(F)cccc2c2nc(C(=O)N3CCc4cc(-c5cncnc5)ccc4C3)cn12 [Ex-287, (5-amino-7-fluoroimidazo[1,2-c]quinazolin-2-yl)(6-(pyrimidin-5-yl)-3,4-dihydroisoquinolin-2(1H)-yl)methanone] | 35
Nc1nc2c(F)cccc2c2nc(C(=O)N3CCc4cc(NC(=O)c5ccccn5)ccc4C3)cn12 [Ex-286, N-(2-(5-amino-7-fluoroimidazo[1,2-c]quinazoline-2-carbonyl)-1,2,3,4-tetrahydroisoquinolin-6-yl)picolinamide] | 19
COc1ccccc1CN1CCC(Cc2cn3c(N)nc4c(F)cccc4c3n2)CC1 [Ex-311, 7-fluoro-2-((1-(2-methoxybenzyl)-piperidin-4-yl)-methyl)imidazo-[1,2-c]quinazolin-5-amine] | 94
COc1cccc2c1nc(N)n1cc(C(=O)N3CCC4(CCOC4)CC3)nc21 [Ex-197, (5-amino-7-methoxyimidazo[1,2-c]quinazolin-2-yl)(2-oxa-8-azaspiro[4.5]decan-8-yl)methanone] | 22
CC(=O)N1CCC2(CCN(C(=O)c3cn4c(N)nc5c(F)cccc5c4n3)CC2)C1 [Ex-269, 1-(8-(5-amino-7-fluoroimidazo[1,2-c]quinazoline-2-carbonyl)-2,8-diazaspiro[4.5]decan-2-yl)ethan-1-one] | 200
Nc1nc2ccccc2c2nc(Cc3ccccc3CN3CCOCC3)cn12 [Ex-25, 2-(2-(morpholinomethyl)benzyl)imidazo[1,2-c]quinazolin-5-amine] | 10.2
COc1cccc2c1nc(N)n1cc(C(=O)N3CCCC4(CCCCO4)C3)nc21 (stereo not drawn) [Ex-204, (5-amino-7-methoxyimidazo[1,2-c]quinazolin-2-yl)(1-oxa-8-azaspiro[5.5]undecan-8-yl)methanone] | 12
Nc1nc2c(F)cccc2c2nc(CCc3ccccc3)cn12 [Ex-100, 7-fluoro-2-phenethylimidazo[1,2-c]quinazolin-5-amine] | 4.4

Structure (SMILES) | Ki [nM]
COc1cccc2c1nc(N)n1cc(C(=O)N3CCO[C@@H](C)C3)nc21 [Ex-182, (S)-(5-amino-7-methoxyimidazo[1,2-c]quinazolin-2-yl)(2-methylmorpholino) methanone] | 75
Nc1nc2c(F)cccc2c2nc(Cc3ccccc3CN3CCC(N4CCOCC4)CC3)cn12 [Ex-73] | 4.2
COc1cccc2c1nc(N)n1cc(Cc3ccc(F)cc3)nc21 [Ex-21, 2-(4-fluorobenzyl)-7-methoxyimidazo[1,2-c]quinazolin-5-amine] | 0.8
COc1cccc2c1nc(N)n1cc(C(=O)N3CCCC(F)(F)CC3)nc21 [Ex-178, (5-amino-7-methoxyimidazo[1,2-c]quinazolin-2-yl)(4,4-difluoroazepan-1-yl)methanone] | 27
COc1cccc2c1nc(N)n1cc(C(=O)N3C(C)CCC3C)nc21 (stereo not drawn) [Ex-210, (5-amino-7-methoxyimidazo[1,2-c]quinazolin-2-yl)(2,5-dimethylpyrrolidin-1-yl)methanone] | 6.1
Nc1nc2c(F)cccc2c2nc(Cc3cccc4c3CCN(CCc3ccccn3)C4)cn12 [Ex-57, 7-fluoro-2-((2-(2-(pyridin-2-yl)ethyl)-1,2,3,4-tetrahydroisoquinolin-5-yl)methyl)imidazo[1,2-c]quinazolin-5-amine] | 18
COc1cccc2c1nc(N)n1cc(CN3CCN(c4ccccc4)CC3)nc21 [Ex-110, 7-methoxy-2-((4-phenylpiperazin-1-yl)methyl)imidazo[1,2-c]quinazolin-5-amine] | 53.2
Nc1nc2c(F)cccc2c2nc(Cc3ccc4c(c3)CN(Cc3ccccc3)C4)cn12 [Ex-65, 2-((2-benzylisoindolin-5-yl)methyl)-7-fluoroimidazo[1,2-c]quinazolin-5-amine] | 5.1
COc1cccc2c1nc(N)n1cc(C(=O)N3CCC4(CC3)CC4)nc21 [Ex-201, (5-amino-7-methoxyimidazo[1,2-c]quinazolin-2-yl)(6-azaspiro[2.5]octan-6-yl)methanone] | 14
COc1cccc2c1nc(N)n1cc(C(=O)N3CCCC4(CCOC4=O)C3)nc21 (stereo not drawn) [Ex-233, 7-(5-amino-7-methoxyimidazo[1,2-c]quinazoline-2-carbonyl)-2-oxa-7-azaspiro[4.5]decan-1-one] | 10
Nc1nc2c(F)cccc2c2nc(Cc3cccc4c3OCCN4C(=O)Cc3ccccn3)cn12 [Ex-92, 1-(8-((5-amino-7-fluoroimidazo[1,2-c]quinazolin-2-yl)methyl)-2,3-dihydro-4H-benzo[b][1,4]oxazin-4-yl)-2-(pyridin-2-yl)ethan-1-one] | 13
COc1cccc2nc(N)n3cc(Cc4ccccc4)nc3c12 [Ex-05, 2-benzyl-10-methoxyimidazo[1,2-c]quinazolin-5-amine] | 642
COCCOc1ccc(N2CCN(c3ccccc3CNC(=O)c3cn4c(N)nc5c(F)cccc5c4n3)CC2)cc1 [Ex-253, 5-amino-7-fluoro-N-(2-(4-(4-(2-methoxyethoxy)phenyl)piperazin-1-yl)benzyl)imidazo[1,2-c]quinazoline-2-carboxamide] | 3.7
COc1cccc2c1nc(N)n1cc(C(=O)N3CCOC(C(F)(F)F)C3)nc21 (stereo not drawn) [Ex-185, (5-amino-7-methoxyimidazo[1,2-c]quinazolin-2-yl)(2-(trifluoromethyl)morpholino) methanone] | 65
COc1cccc2c1nc(N)n1cc(CNCc3cccnc3)nc21 [Ex-145, 7-methoxy-2-(((pyridin-3-ylmethyl)amino)methyl)imidazo [1,2-c]quinazolin-5-amine] | 28
Nc1nc2c(F)cccc2c2nc(CC3CCN(C(=O)c4ccc(F)cn4)CC3)cn12 [Ex-323, (4-((5-amino-7-fluoroimidazo[1,2-c]quinazolin-2-yl)-methyl)piperidin-1-yl)(5-fluoropyridin-2-yl)methanone] | 17

From patent US11498923B2 (Merck Sharp & Dohme Corp., priority 2017, dated 2022)
